The record followed here is patent US20120046261A1, “COMPOSITIONS AND METHODS FOR DIAGNOSING AND PREVENTING SPONTANEOUS PRETERM BIRTH” (UNIVERSITY OF UTAH RESEARCH FOUNDATION, priority 2009, published 2012).

Entries after “also recorded” stand apart in the source; their conditions may differ.

The subject of the assay is women with prior spontaneous preterm birth. Nature of the assay: Multicenter, prospective, double-blind study of 17P vs. placebo for prevention of recurrent SPTB, secondary analysis by hPR genotype. The class given is in vivo, human. The procedure: The goal of this study was to assess if women with single nucleotide polymorphisms (SNPs) in the human progesterone receptor (hPR) are more or less likely to respond to 17P for the prevention of recurrent SPTB. This study involved secondary analysis of 463 women enrolled in a multicenter, prospective, double-blind study of 17P vs. placebo for the prevention of recurrent SPTB.
Of 463 patients randomized in the original study, 459 were analyzed. Two thirds of women were randomized to 17P and one third were randomized to placebo. Of those patients who received 17P, 111, or 36%, delivered preterm less than 37 weeks, and 195, or 64%, delivered at term. Among those patients who received placebo, the preterm birth rate was higher, as 55% of women delivered preterm. During summer 2008, DNA was extracted from stored saliva samples. […]
20 SNPs in the hPR gene were selected to encompass the large progesterone receptor haplotype block. The 389 individuals with DNA available were then genotyped using TaqMan chemistry with established primers. Allele and genotype frequencies were calculated and evaluated for evidence of genetic predisposition to 17P response. Women were stratified by self-reported race. Primary outcomes evaluated were preterm birth<37 and <32 weeks
Regression was used to assess for an interaction between genotype, treatment, and clinical outcomes. Models controlled for number of prior spontaneous preterm births, smoking, and pre-pregnancy body mass index.
Dominant and recessive models of inheritance were used in this study (see Table 2 above). The dominant model assumes that having at least one copy of the minor allele is sufficient for disease. Patients homozygous for the minor allele and heterozygous patients with one minor allele are grouped together; here “little a/little a” and “Big A/little a” are compared with those homozygous for the major allele, “Big A/Big A.” The recessive model assumes that two copies of the minor allele are needed for disease. Here, those patients who are homozygous for the minor allele “little a/little a” are compared against the others.
Outcomes were available on 459 of the original 463 patients enrolled in the study. The study population of 389 patients was representative of the original cohort (see Table 3 below). The majority of patients in the cohort were African-American. Two-thirds of patients in the cohort received 17P. Furthermore, a similar proportion of patients delivered preterm less than 37 weeks and very preterm, less than 32 weeks, in the cohort when compared to the original study. Additionally, 21.1% of patients smoked during pregnancy. All patients had at least one prior spontaneous preterm birth in order to qualify for the original study. 28% of patients had 2 or more prior spontaneous preterm deliveries. The average pre-pregnancy body mass index was 26.7 kilograms per meter squared.

Setting [1] is: all patients who received 17P, original study cohort (459 analyzed).

Regarding `CCCCCC(=O)O[C@]1(C(C)=O)CC[C@H]2[C@@H]3CCC4=CC(=O)CC[C@]4(C)[C@H]3CC[C@@]21C` [17P, 17 alpha-hydroxyprogesterone caproate], the “percentage of patients delivering preterm <37 weeks” value reads like this: (African Americans, rs471767 AA genotype (homozygous major allele), receiving 17P, placebo nearly 60%) 21%; (African Americans, rs471767 at least one minor allele (G; AG and GG), receiving 17P) “under 40%”. Moreover, the “rate of prematurity (SPTB)” value (African Americans, rs578029 at least one major allele (T), receiving 17P, placebo approximately 55%) is 25%. In addition, the “reduction in preterm birth rates with 17P” value (African Americans, rs578029 homozygous for the minor allele (A)) was “no reduction”. The “patients who delivered at term” value under setting [1] was found to be 64%. For the same compound, under setting [1], the “patients who delivered preterm less than 37 weeks” value was 36%. In addition, the “rate of preterm birth <32 weeks gestation” value by setting is: (non-African American (Caucasian/Hispanic), rs666553 at least one minor allele (T), receiving 17P, placebo 26.7%) 3.4%; (non-African American, rs503362 at least one minor allele (C), receiving 17P, placebo 17.4%) 2.6%. In addition, the “reduction in prematurity (<32 weeks) with 17P” value (non-African American (Caucasian/Hispanic), rs666553 homozygous for the major allele) is “do not experience any reduction; also recorded: did not experience any reduction”. The “reduction in the rate of prematurity (<32 weeks) when receiving 17P” value (non-African American, rs503362 homozygous for the major allele (G)) is “did not have a reduction”.
